{"source": "patent US8772290B2", "about": "“Alpha-arylmethoxyacrylate derivative, preparation method thereof, and pharmaceutical composition containing same” (Oscotech Inc., priority 2010, dated 2014)", "system": "HIF", "experiment": "Assay for inhibitory activity against HIF activity (HIF1 luciferase reporter cell line)", "format": "cell-based, human", "conditions": "Homo sapiens; HEK293 HIF1 reporter cell line, 1% oxygen, 6 hours, luciferase activity 50% inhibited", "from_the_text": "In order to assay the compounds of the present invention for inhibitory activity against HIF activity, the HIF1 reporter plasmid (Panomics) that is designed to control the expression of luciferase by HIF was employed. The HIF1 reporter plasmid and the pTK-Hyg plasmid (Clontech), which carries a hygromycin resistant gene, were co-transfected into the HEK293 cell line (the Korean Cell Line Bank, KCLB No. 21573), derived from the human kidney, with the aid of Effectene transfection reagent (Qiagen). Then, the cells were cultured for 3 weeks on a medium containing 200 μg/mL hygromycin to select transformants resistant to hygromycin. The cell colonies derived from single cells were transferred to 24-well plates to secure a reporter cell line. The cells were seeded at a density of 4×10^4 cells/well into 96-well plates containing DMEM and incubated for 24 hours before treatment with the compounds of the present invention at a concentration of 25 μM, 5 μM, 1 μM, 200 nM, 40 nM, 8 nM, 1.6 nM, 320 pM, 64 pM, 12.8 pM, 2.56 pM, 512 fM, 102 fM, 20.4 fM, or an amount between any two concentrations above as shown in FIGS. 1A to 1C. Under 1% oxygen condition, the cells were incubated for 6 hours and then, the medium was removed. The cells were lyzed by incubation for 5 min with 100 μL of the mixture of Bright-Glo™ luciferase assay buffer and Bright-Glo™ luciferase assay substrate (Promega). The whole cell lysate was transferred to 96-well, white plates (PerkinElmer) and measured for luminescence using Victor™ 3 (PerkinElmer). From the luminescence measurements, IC50 (a concentration of the compound at which luciferase activity was 50% inhibited) was calculated using the GraphPad Prism™ 4 program. The results are summarized in Table 2 and illustrated in FIGS. 1A to 1C.", "data": [{"smiles": "CCCO/N=C(\\CC)c1cccc(OCc2ccccc2/C(=C\\OC)C(=O)OC)c1", "note": "[Compound 7, (E)-methyl 2-(2-((3-((E)-1-(propoxyimino)propyl)phenoxy)methyl)-phenyl)-3-methoxyacrylate]", "values": [{"measurement": "IC50", "value": 5070, "unit": "nM"}]}, {"smiles": "CO/C=C(/C(=O)OC)c1ccccc1COc1cc(C)cc(OCCOc2ccccc2)c1C", "note": "[Compound 56, (E)-methyl 2-(2-((2,5-dimethyl-3-(2-phenoxyethoxy)phenoxy)methyl)-phenyl)-3-methoxyacrylate]", "values": [{"measurement": "IC50", "value": 2140, "unit": "nM"}]}, {"smiles": "CO/C=C(/C(=O)OC)c1ccccc1COc1cc(C)c(/C=N/OCc2ccccn2)cc1C", "note": "[Compound 73, (E)-methyl 2-(2-((4-((E)-(pyridin-2-ylmethoxyimino)methyl)-2,5-dimethylphenoxy)methyl)phenyl)-3-methoxyacrylate]", "values": [{"measurement": "IC50", "value": 30, "unit": "nM"}]}, {"smiles": "CO/C=C(/C(=O)OC)c1ccccc1COc1cccc(OCCc2ccccc2)c1", "note": "[Compound 16, (E)-methyl 2-(2-((3-phenethoxyphenoxy)methyl)phenyl)-3-methoxyacrylate]", "values": [{"measurement": "IC50", "value": 340, "unit": "nM"}]}, {"smiles": "CO/C=C(/C(=O)OC)c1ccccc1COc1cccc(OCc2ccccc2)c1", "note": "[Compound 3, (E)-methyl 2-(2-((3-(benzyloxy)phenoxy)methyl)phenyl)-3-methoxyacrylate]", "values": [{"measurement": "IC50", "value": 50, "unit": "nM"}]}, {"smiles": "CO/C=C(/C(=O)OC)c1ccccc1COc1cc(/C=N/Oc2ccccc2)ccc1OC", "note": "[Compound 46, (E)-methyl 2-(2-((2-methoxy-5-((E)-1-(phenoxyimino)methyl)phenoxy)-methyl)phenyl)-3-methoxyacrylate]", "values": [{"measurement": "IC50", "value": 170, "unit": "nM"}]}, {"smiles": "CCCO/N=C(\\C)c1cc(C)c(OCc2ccccc2/C(=C\\OC)C(=O)OC)cc1C", "note": "[Compound 2, (E)-methyl 2-(2-((2,5-dimethyl-4-((E)-1-(propoxyimino)ethyl)phenoxy)-methyl)phenyl)-3-methoxyacrylate]", "values": [{"measurement": "IC50", "value": 1, "unit": "nM"}]}, {"smiles": "CO/C=C(/C(=O)OC)c1ccccc1COc1cc(O)cc(OCc2ccccn2)c1", "note": "[Compound 28, (E)-methyl 2-(2-((3-hydroxy-5-(pyridin-2-ylmethoxy)phenoxy)methyl)-phenyl)-3-methoxyacrylate]", "values": [{"measurement": "IC50", "value": 710, "unit": "nM"}]}, {"smiles": "CO/C=C(/C(=O)OC)c1ccccc1COc1cccc(O)c1", "note": "[Compound 5, (E)-methyl 2-(2-((5-hydroxyphenoxy)methyl)phenyl)-3-methoxyacrylate]", "values": [{"measurement": "IC50", "value": 1990, "unit": "nM"}]}, {"smiles": "CO/C=C(/C(=O)OC)c1ccccc1COc1ccc(/C(C)=N/OCc2ccccc2)cc1", "note": "[Compound 17, (E)-methyl 2-(2-((4-((E)-1-(benzyloxyimino)ethyl)phenoxy)methyl)-phenyl)-3-methoxyacrylate]", "values": [{"measurement": "IC50", "value": 370, "unit": "nM"}]}, {"smiles": "CO/C=C(/C(=O)OC)c1ccccc1COc1cc(C)c(/C=N/OCc2ccncc2)cc1C", "note": "[Compound 74, (E)-methyl 2-(2-((4-((E)-(pyridin-4-ylmethoxyimino)methyl)-2,5-dimethylphenoxy)methyl)phenyl)-3-methoxyacrylate]", "values": [{"measurement": "IC50", "value": 60, "unit": "nM"}]}, {"smiles": "CO/C=C(/C(=O)OC)c1ccccc1COc1cc(F)cc(OCCOc2ccccc2)c1", "note": "[Compound 22, (E)-methyl 2-(2-((3-fluoro-5-(2-phenoxyethoxy)phenoxy)methyl)phenyl)-3-methoxyacrylate]", "values": [{"measurement": "IC50", "value": 260, "unit": "nM"}]}, {"smiles": "CO/C=C(/C(=O)OC)c1ccccc1COc1cccc(OCCNCCO)c1", "note": "[Compound 11, (E)-methyl 2-(2-((3-(2-(2-hydroxyethylamino)ethoxy)phenoxy)methyl)-phenyl)-3-methoxyacrylate]", "values": [{"measurement": "IC50", "value": 640, "unit": "nM"}]}, {"smiles": "CO/C=C(/C(=O)OC)c1ccccc1COc1cc(C)c(/C=N/OCC2CC2)cc1C", "note": "[Compound 68, (E)-methyl 2-(2-((4-((E)-(cyclopropylmethoxyimino)methyl)-2,5-dimethylphenoxy)methyl)phenyl)-3-methoxyacrylate]", "values": [{"measurement": "IC50", "value": 7, "unit": "nM"}]}, {"smiles": "CO/C=C(/C(=O)OC)c1ccccc1COc1cc(/C=N/OCc2ccc(C)cc2)ccc1OC", "note": "[Compound 58, (E)-methyl 2-(2-((2-methoxy-5-((E)-1-(4-methylbenzyloxyimino)methyl)-phenoxy)methyl)phenyl)-3-methoxyacrylate]", "values": [{"measurement": "IC50", "value": 1260, "unit": "nM"}]}, {"smiles": "CO/C=C(/C(=O)OC)c1ccccc1COc1cc(O)cc(F)c1", "note": "[Compound 15, (E)-methyl 2-(2-((3-fluoro-5-hydroxyphenoxy)methyl)phenyl)-3-methoxyacrylate]", "values": [{"measurement": "IC50", "value": 3720, "unit": "nM"}]}, {"smiles": "CO/C=C(/C(=O)OC)c1ccccc1COc1cc(C)c(/C=N/OCc2ccccc2)cc1C", "note": "[Compound 50, (E)-methyl 2-(2-((4-((E)-(benzyloxyimino)methyl)-2,5-dimethylphenoxy)-methyl)phenyl)-3-methoxyacrylate]", "values": [{"measurement": "IC50", "value": 70, "unit": "nM"}]}, {"smiles": "CO/C=C(/C(=O)OC)c1ccccc1COc1cc(/C=N/OCCc2ccccc2)ccc1OC", "note": "[Compound 45, (E)-methyl 2-(2-((2-methoxy-5-((E)-1-(phenylethoxyimino)methyl)-phenoxy)methyl)phenyl)-3-methoxyacrylate]", "values": [{"measurement": "IC50", "value": 110, "unit": "nM"}]}, {"smiles": "CO/C=C(/C(=O)OC)c1ccccc1COc1cc(C)cc(O)c1C", "note": "[Compound 55, (E)-methyl 2-(2-((3-hydroxy-2,5-dimethylphenoxy)methyl)phenyl)-3-methoxyacrylate]", "values": [{"measurement": "IC50", "value": 3690, "unit": "nM"}]}, {"smiles": "CCCO/N=C/c1cc(F)c(OCc2ccccc2/C(=C\\OC)C(=O)OC)c(OC)c1", "note": "[Compound 64, (E)-methyl 2-(2-((2-fluoro-6-methoxy-4-((E)-(propoxyimino)methyl)-phenoxy)methyl)phenyl)-3-methoxyacrylate]", "values": [{"measurement": "IC50", "value": 2620, "unit": "nM"}]}, {"smiles": "CO/C=C(/C(=O)OC)c1ccccc1COc1cc(/C(C)=N/Nc2ccccc2)ccc1OC", "note": "[Compound 48, (E)-methyl 2-(2-((2-methoxy-5-((E)-1-(phenylhydrazono)ethyl)phenoxy)-methyl)phenyl)-3-methoxyacrylate]", "values": [{"measurement": "IC50", "value": 8580, "unit": "nM"}]}, {"smiles": "CO/C=C(/C(=O)OC)c1ccccc1COc1cc(C)c(/C=N/OCc2cccc(OC)c2)cc1C", "note": "[Compound 72, (E)-methyl 2-(2-((4-((E)-(3-methoxybenzyloxyimino)methyl)-2,5-dimethylphenoxy)methyl)phenyl)-3-methoxyacrylate]", "values": [{"measurement": "IC50", "value": 180, "unit": "nM"}]}, {"smiles": "CO/C=C(/C(=O)OC)c1ccccc1COc1ccc(F)c(OCc2ccccc2)c1F", "note": "[Compound 62, (E)-methyl 2-(2-((3-(benzyloxy)-2,4-difluorophenoxy)methyl)phenyl)-3-methoxyacrylate]", "values": [{"measurement": "IC50", "value": 200, "unit": "nM"}]}, {"smiles": "CO/C=C(/C(=O)OC)c1ccccc1COc1cccc(OCc2ccccn2)c1", "note": "[Compound 26, (E)-methyl 2-(2-((3-(pyridin-2-ylmethoxy)phenoxy)methyl)phenyl)-3-methoxyacrylate]", "values": [{"measurement": "IC50", "value": 510, "unit": "nM"}]}, {"smiles": "CCO/N=C/c1cccc(OCc2ccccc2/C(=C\\OC)C(=O)OC)c1", "note": "[Compound 4, (E)-methyl 2-(2-((3-((E)-(ethoxyimino)methyl)phenoxy)methyl)phenyl)-3-methoxyacrylate]", "values": [{"measurement": "IC50", "value": 290, "unit": "nM"}]}, {"smiles": "CCCO/N=C(\\C)c1ccc(OCc2ccccc2/C(=C\\OC)C(=O)OC)c(OC)c1", "note": "[Compound 35, (E)-methyl 2-(2-((4-((E)-1-(propoxyimino)ethyl)-2-methoxyphenoxy)-methyl)phenyl)-3-methoxyacrylate]", "values": [{"measurement": "IC50", "value": 1920, "unit": "nM"}]}, {"smiles": "CO/C=C(/C(=O)OC)c1ccccc1COc1ccc(/C(C)=N/OCCc2ccccc2)cc1", "note": "[Compound 18, (E)-methyl 2-(2-((4-((E)-1-(phenethoxyimino)ethyl)phenoxy)methyl)-phenyl)-3-methoxyacrylate]", "values": [{"measurement": "IC50", "value": 400, "unit": "nM"}]}, {"smiles": "CO/C=C(/C(=O)OC)c1ccccc1COc1cc(C)c(/C=N/OC2CCCC2)cc1C", "note": "[Compound 69, (E)-methyl 2-(2-((4-((E)-(cyclopentyloxyimino)methyl)-2,5-dimethylphenoxy)methyl)phenyl)-3-methoxyacrylate]", "values": [{"measurement": "IC50", "value": 30, "unit": "nM"}]}, {"smiles": "CO/C=C(/C(=O)OC)c1ccccc1COc1ccc(/C=N/OCc2ccc(C)cc2)cc1C", "note": "[Compound 60, (E)-methyl 2-(2-((2-methyl-4-((E)-(4-methylbenzyloxyimino)methyl)-phenoxy)methyl)phenyl)-3-methoxyacrylate]", "values": [{"measurement": "IC50", "value": 110, "unit": "nM"}]}, {"smiles": "CCCO/N=C/c1cccc(OCc2ccccc2/C(=C\\OC)C(=O)OC)c1", "note": "[Compound 14, (E)-methyl 3-methoxy-2-(2-((3-((E)-(propoxyimino)methyl)phenoxy)-methyl)phenyl)acrylate]", "values": [{"measurement": "IC50", "value": 19900, "unit": "nM"}]}, {"smiles": "CCCOc1cc(C)cc(OCc2ccccc2/C(=C\\OC)C(=O)OC)c1C", "note": "[Compound 40, (E)-methyl 2-(2-((2,5-dimethyl-3-propoxyphenoxy)methyl)phenyl)-3-methoxyacrylate]", "values": [{"measurement": "IC50", "value": 12600, "unit": "nM"}]}, {"smiles": "CCCO/N=C/c1ccc(OC)c(OCc2ccccc2/C(=C\\OC)C(=O)OC)c1", "note": "[Compound 43, (E)-methyl 2-(2-((2-methoxy-5-((E)-(propoxyimino)methyl)phenoxy)-methyl)phenyl)-3-methoxyacrylate]", "values": [{"measurement": "IC50", "value": 960, "unit": "nM"}]}, {"smiles": "CO/C=C(/C(=O)OC)c1ccccc1COc1cc(F)cc(OCc2ccccc2)c1", "note": "[Compound 21, (E)-methyl 2-(2-((3-(benzyloxy)-5-fluorophenoxy)methyl)phenyl)-3-methoxyacrylate]", "values": [{"measurement": "IC50", "value": 490, "unit": "nM"}]}, {"smiles": "CO/C=C(/C(=O)OC)c1ccccc1COc1cc(C)cc(OCc2ccccc2)c1C", "note": "[Compound 41, (E)-methyl 2-(2-((3-(benzyloxy)-2,5-dimethylphenoxy)methyl)phenyl)-3-methoxyacrylate]", "values": [{"measurement": "IC50", "value": 6120, "unit": "nM"}]}]}
